The experiment concerns Aβ42. Briefly: In vitro cellular assay (Aβ42): quantification of Aβ peptide in culture of neurons from rat fetus brain (ELISA). The experiment is classed as cell-based. The following applies: Primary cortical neuron, 72 h, rat primary cortical neurons (embryonic day 18 Wistar), 3 days after addition of compound, read-out: Cell IC50. How it is done:
In vitro Cellular Assay (Aβ42):
Quantification of AβPeptide in Culture of Neurons from Rat Fetus Brain
(1) Rat Primary Neuronal Culture
Primary neuronal cultures were prepared from the cerebral cortex of embryonic day 18 Wistar rats (Charles River, UK). Specifically, the embryos were aseptically removed from pregnant rats under ether anesthesia. The brain was isolated from the embryo and immersed in HBSS (Sigma Aldrich #H9269) containing 10 mM HEPES (Gibco #15630-056). The cerebral cortex was collected from the isolated brain under a stereoscopic microscope. The cerebral cortex fragments collected were enzymatically treated in an enzyme solution containing 0.05% trypsin-EDTA solution (GIBCO, #25300) at 37° C. for 20 minutes to disperse the cells. The cells were then washed twice and then gently resuspended in Neurobasal medium (Gibco #21103) supplemented with 2% B27 supplement (GIBCO #17504-044), 0.5 mM L-glutamine (GIBCO #25030), 1×N2 (GIBCO #17502-048), 100 ug/ml Pen/Strep (GIBCO 15140-122) and 5% heat inactivated FCS (PAA #A15-701). The cell dispersion was filtered through a 40-μm nylon mesh (BD Falcon #352340) to remove the remaining cell mass, and thus a neuronal cell suspension was obtained. The neuronal cell suspension was diluted with the medium above and then plated in a volume of 100 μL/well at an initial cell density of 3.25×10^5 cells/ml in poly-D-lysine coated 96-well culture plate (Greiner #655940). The plated cells were cultured in the culture plate at 37° C. in 5% CO2-95% air for 24 hrs. The total amount of the medium was replaced with ‘assay Neurobasal medium’ (as above excluding heat inactivated FCS), and then the cells were cultured for a further five days.
The drug was added to the culture plate on Day 6 of culture as follows. 8 point compound serial dilutions were generated in DMSO at a concentration of ×1000 that of the final assay concentration (FAC). Compound solutions were then prepared by adding 999 ul of ‘Assay Neurobasal media’ (as described in above section) to 1 ul of DMSO compound stock. The total amount of the medium was removed from each of the cell plate wells, and 200 μL/well of compound solution was added. The final DMSO concentration was 0.1%.
The cells were cultured for either 1 or 3 days after addition of the compound for ABx-40 and ABx-42 assays respectively. 150 μl of sample medium was collected and used as the ELISA sample.
Human/Rat β Amyloid (42) ELISA Kit Wako (#290-62601) and Human/Rat β Amyloid (40) ELISA Kit Wako (#294-62501) from Wako Pure Chemical Industries, Ltd. were used for Aβ ELISA Aβ ELISA was carried out according to the protocols recommended by the manufacturers, described in the documents accompanying the kits. The results were shown as percentage of the control groups and IC50 values for each compound were determined using four parameter logistic fit model using the XLFIT5 software package (IDBS).
In general terms: ELISA stands for enzyme-linked immunosorbent assay.

With `COc1cccc(-c2ccc(F)c([C@]34CO[C@H](C)[C@H]3CSC(N)=N4)c2)n1` [Example 24, (4aS,5R,7aS)-7a-(2-fluoro-5-(6-methoxypyridin-2-yl)phenyl)-5-methyl-4a,5,7,7a-tetrahydro-4H-furo[3,4-d][1,3]thiazin-2-amine], the IC50 (in general, the concentration at which inhibition is half-maximal) was > 1000 nM.

For `C[C@H]1OC[C@]2(c3cc(-c4cccc(=O)[nH]4)ccc3F)N=C(N)SC[C@H]12` [Example 25, 6-(3-((4aS,5R,7aS)-2-amino-5-methyl-4a,5,7,7a-tetrahydro-4H-furo[3,4-d][1,3]thiazin-7a-yl)-4-fluorophenyl)pyridin-2(1H)-one], the IC50 is 342 nM.

Consider `C[C@H]1OC[C@]2(c3cc(-c4cncc(OC(F)F)c4)ccc3F)N=C(N)SC[C@H]12` [Example 26], for which the IC50 was 64 nM.

`NC1=N[C@@]2(c3cc(-c4cncnc4)c(F)cc3F)CO[C@H](CF)[C@H]2CS1` [Example 27, (4aS,5S,7aS)-7a-(2,4-Difluoro-5-(pyrimidin-5-yl)phenyl)-5-(fluoromethyl)-4a,5,7,7a-tetrahydro-4H-furo[3,4-d][1,3]thiazin-2-amine]: the IC50 was determined as 59 nM.

`NC1=N[C@@]2(c3cc(-c4cccnc4F)c(F)cc3F)CO[C@H](CF)[C@H]2CS1` [Example 28]: the IC50 was determined as 46 nM.

`COc1cncc(-c2cc([C@]34CO[C@H](CF)[C@H]3CSC(N)=N4)c(F)cc2F)c1` [Example 29, (4aS,5S,7aS)-7a-(2,4-difluoro-5-(5-methoxypyridin-3-yl)phenyl)-5-(fluoromethyl)-4a,5,7,7a-tetrahydro-4H-furo[3,4-d][1,3]thiazin-2-amine]: the IC50 came to 15 nM.

For the molecule `NC1=N[C@@]2(c3cc(-c4ccc(F)nc4)c(F)cc3F)CO[C@H](CF)[C@H]2CS1` [Example 30, (4aS,5S,7aS)-7a-(2,4-difluoro-5-(6-fluoropyridin-3-yl)phenyl)-5-(fluoromethyl)-4a,5,7,7a-tetrahydro-4H-furo[3,4-d][1,3]thiazin-2-amine], the IC50 stood at 223 nM.

The values are drawn from patent US8822455B2, “Fused aminodihydrothiazine derivatives” (Eisai R&D Management Co., Ltd., priority 2011, dated 2014).
